From patent US10822325B2, “Human GLUT5 specific inhibitors and methods of treatment” (UNM RAINFOREST INNOVATIONS, priority 2015, dated 2020)
Entries after “also recorded” stand apart in the source; their conditions may differ.

What was measured:
GlcPSe,F348H = target: T1, GlcPSe,F348H (Staphylococcus epidermidis, UniProt A0A0H2VG78, F348H); assay: Glucose uptake by GlcPSe,F348H mutant in right-side-out vesicles of JM1100 E. coli cells; assay type: biochemical, bacterial; details: for effect on GlcPSe,F348H glucose transport: 2 mM compound, RSO vesicles
T1 construct: made in house; host or cells: Escherichia coli JM1100 (pBAD); right-side-out membrane vesicles
T1 sequence (A0A0H2VG78 whole entry F348H): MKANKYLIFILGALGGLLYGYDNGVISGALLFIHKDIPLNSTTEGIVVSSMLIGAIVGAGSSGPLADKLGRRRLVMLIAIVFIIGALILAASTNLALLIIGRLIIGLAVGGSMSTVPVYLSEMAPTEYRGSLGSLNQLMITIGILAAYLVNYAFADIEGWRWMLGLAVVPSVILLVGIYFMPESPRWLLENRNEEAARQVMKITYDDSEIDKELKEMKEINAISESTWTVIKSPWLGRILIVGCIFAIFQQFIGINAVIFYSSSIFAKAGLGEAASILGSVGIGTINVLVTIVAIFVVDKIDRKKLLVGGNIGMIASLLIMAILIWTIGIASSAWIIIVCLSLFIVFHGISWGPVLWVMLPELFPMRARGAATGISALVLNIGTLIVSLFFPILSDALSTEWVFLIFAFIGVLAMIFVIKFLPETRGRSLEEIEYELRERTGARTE
Experimental: (§1) Glucose transport assay for GlcPSe, wild-type and F348H mutant, was performed as described previouslyl^16. GlcPSe was cloned into the pBAD vector (Invitrogen) with C-terminal 6×His tag. F348H mutation was done with the site-directed mutagenesis method^37. GlcPSe proteins were expressed in the glucose transporter deficient Escherichia coli strain JM1100. Cells were grown at 37° C., in Luria Broth medium, with 100 μg/mL ampicillin. Protein expression was induced with 0.3 mM L-arabinose at O.D.600 nm 0.6. After 3 hours, cells were harvested by centrifugation at 2,500 g for 5 min. The right-side-out (RSO) membrane vesicles of JM1100 E. coli cells were prepared as described previouslyl^16,39,40. Transport assay was initiated by the addition of ^14C-radiolabeled glucose (Moravek Biochemicals) to 50 μL RSO vesicles in 100 mM KPi buffer pH 7.5, at O.D.600 nm of 2.0. After one minute, the transport was stopped and the radioactivity was measured as described below. When inhibitors were used, they were incubated with RSO vesicles 1 minute before transport initiation.
As MSNBA seemed to be specific for GLUT5, we focused on the residues in the MSNBA predicted binding site that were different from GLUT5 compared to GLUT1-4 and GlcPSe. Among these, H387 of GLUT5 potentially interacts with the […] group of MSNBA (FIG. 4b and FIG. 6), but is a Phe in GLUT1-4 as well as GlcPSe (FIG. 4c). To test if this residue is important for MSNBA inhibition, we constructed and expressed three mutant proteins: GlcPSe,F348H, GLUT1F379H, and GLUT5H387F. As with the wild-type proteins, GLUT1F379H and GLUT5H387F were recombinantly produced in insect cells, purified and reconstituted in proteoliposomes. Their transport activity was assayed by the entrance counter-flow method in proteolipsomes. Glucose transport of GlcPSe,F348H was determined in JM1100 E. coli cells in right-side-out (RSO) vesicles.

GlcPSe = target: T2, GlcPSe (Staphylococcus epidermidis, UniProt A0A0H2VG78); assay: Glucose uptake by GlcPSe in right-side-out vesicles of JM1100 E. coli cells; assay type: biochemical; details: 2 mM compound, RSO vesicles, 30 μM C14-glucose, one minute
T2 construct: made in house; host or cells: Escherichia coli JM1100 (pBAD); right-side-out membrane vesicles
T2 sequence (A0A0H2VG78 1-446): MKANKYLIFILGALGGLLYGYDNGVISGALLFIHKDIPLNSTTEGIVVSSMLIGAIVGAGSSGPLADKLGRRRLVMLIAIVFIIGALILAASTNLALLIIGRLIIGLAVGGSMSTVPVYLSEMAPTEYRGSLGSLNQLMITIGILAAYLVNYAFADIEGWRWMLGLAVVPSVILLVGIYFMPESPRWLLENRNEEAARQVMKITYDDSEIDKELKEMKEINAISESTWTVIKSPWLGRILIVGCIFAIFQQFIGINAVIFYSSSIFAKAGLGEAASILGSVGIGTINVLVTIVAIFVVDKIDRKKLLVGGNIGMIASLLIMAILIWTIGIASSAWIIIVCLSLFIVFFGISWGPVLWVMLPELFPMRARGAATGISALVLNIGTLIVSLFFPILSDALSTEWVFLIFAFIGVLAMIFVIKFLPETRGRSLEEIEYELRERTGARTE
Experimental: as §1
Given the partial conservation of the MSNBA binding site in other GLUTs and GlcPSe, we checked whether MSNBA inhibits GLUT1-4 or GlcPSe. Glucose transport of GLUT1, GLUT2, GLUT3 and GLUT4 and fructose transport of GLUT2 were assayed by the entrance counter-flow method in proteoliposomes constructed with the respective recombinant human GLUT produced in insect cells. Glucose transport of GlcPSe was measured in right-side-out (RSO) vesicles of JM1100 E. coli cells (that lack endogenous glucose transport) expressing GlcPSe.

Question: How did the inhibition at 2000 µM (GlcPSe,F348H; read-out: inhibition of GlcPSe,F348H transport activity) turn out when CS(=O)(=O)c1ccc(Nc2ccc3c(c2)OCO3)c([N+](=O)[O-])c1 [MSNBA, N-[4-(methylsulfonyl)-2-nitrophenyl]-1,3-benzodioxol-5-amine] was run?
Answer: 75%

Question: What about the “effect on GlcPSe glucose transport” value (GlcPSe) of the same compound?
Answer: did not affect; also recorded: did not influence

Question: For C=C1[C@@H](C)[C@H]2[C@H](Cc3ccccc3)NC(=O)[C@]23OC(=O)/C=C/[C@H](O)CCC[C@@H](C)C/C=C/[C@H]3[C@@H]1O [cytochalasin B, reference compound], which “effect on GlcPSe,F348H glucose transport” value (GlcPSe,F348H) is on record?
Answer: decreased cytochalasin B inhibition

Question: What about the “effect on GlcPSe glucose transport” value (GlcPSe) of the same compound?
Answer: inhibited

Question: What does the source list for O=C(CCc1ccc(O)cc1)c1c(O)cc(O)cc1O [phloretin, reference compound]?
Answer: effect on GlcPSe,F348H glucose transport (GlcPSe,F348H): still inhibited; effect on GlcPSe glucose transport (GlcPSe): inhibited
